# Assay results reported in patent US20230147257A1 (DONG-A ST CO., LTD., priority 2020, published 2023).
# Where two headings read alike, the source gives them in different places.
# Assays:
# Format in all cases: cell-based
# AhR [1] = biological target: T1, AhR (Mus musculus, UniProt P30561); assay: In vitro assay 2: XRE-luciferase reporter assay, antagonism in mouse cell line (Hepa1c1c7); conditions: Hepa1c1c7 XRE-Luc, 6 hours
# T1 sequence (P30561 1-848): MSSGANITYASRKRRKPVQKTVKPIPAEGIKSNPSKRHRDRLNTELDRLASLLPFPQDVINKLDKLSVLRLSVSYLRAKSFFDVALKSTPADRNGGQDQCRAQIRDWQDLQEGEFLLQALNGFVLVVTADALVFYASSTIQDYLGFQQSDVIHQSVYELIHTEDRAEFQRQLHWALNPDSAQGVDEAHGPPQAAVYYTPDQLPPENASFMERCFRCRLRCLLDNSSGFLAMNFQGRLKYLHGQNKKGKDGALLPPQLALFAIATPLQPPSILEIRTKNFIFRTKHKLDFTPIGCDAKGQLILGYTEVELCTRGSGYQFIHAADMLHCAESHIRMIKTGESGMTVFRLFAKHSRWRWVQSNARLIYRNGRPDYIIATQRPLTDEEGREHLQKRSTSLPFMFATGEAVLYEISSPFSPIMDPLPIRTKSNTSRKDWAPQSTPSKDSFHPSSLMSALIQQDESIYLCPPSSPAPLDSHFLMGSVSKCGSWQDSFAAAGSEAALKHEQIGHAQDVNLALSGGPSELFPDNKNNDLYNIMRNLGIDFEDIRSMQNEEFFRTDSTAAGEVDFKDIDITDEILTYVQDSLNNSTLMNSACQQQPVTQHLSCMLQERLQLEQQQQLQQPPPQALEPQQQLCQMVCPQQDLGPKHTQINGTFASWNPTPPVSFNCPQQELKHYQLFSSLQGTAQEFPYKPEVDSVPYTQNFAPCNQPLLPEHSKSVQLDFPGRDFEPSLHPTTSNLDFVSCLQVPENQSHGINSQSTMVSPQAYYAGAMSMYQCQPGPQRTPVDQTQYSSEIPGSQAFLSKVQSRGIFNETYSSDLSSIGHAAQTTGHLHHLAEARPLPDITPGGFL
# Excerpt: (§1) In Vitro XRE-Luciferase Reporter Assay (In Vitro Assay 1, 2, 3)
# (§2) AhR activation leads the induction of target gene expression such as CYP1A1 and CYP1B1 by AhR binding to AhR-responsive DNA elements also known as xenobiotics responsive elements (XRE). The assay for measuring AhR activity herein is the luciferase assay using cell lines transfected with luciferase reporter plasmid containing XREs at the upstream of the reporter gene. Cells transfected with XRE-luciferase reporter (XRE-Luc) plasmid drive luciferase activity reflecting activation and inhibition of AhR in the cells. In addition to transfection with XRE-reporter vector, cells were co-transfected with Nano-luciferase reporter gene construct (Nano-Luc) containing constitutively active promoter as internal control. Kynurenine (an endogenous AhR agonist) was used to stimulate cells to test antagonistic properties of the compounds. The half-maximal inhibitory concentration (IC50) or half-maximal effective concentration (EC50) value was calculated using nonlinear regression (four parameters) with Prism8.0 software (GraphPad).
# In Vitro Assay 2: Antagonism in Mouse Cell Line
# Hepa1c1c7 (murine liver cancer cell line) cells co-transfected with XRE-Luc and Nano-Luc plasmids were plated in complete medium and incubated overnight at 37° C. in a CO2 incubator. Following incubation, cells were treated with AhR activating ligands such as kynurenic acid, kynurenine(#) with or without test compounds for 6 hours. Firefly luciferase and Nano-luciferase activity was measured using Nano-glo Luciferase kit (Promega) and relative luciferase activity (Firefly/Nano-Luc) was used to calculate IC50 values. The relative luciferase activity was further normalized with agonists alone group as the maximum control and the vehicle group as the minimum control. (IC50 Values are grouped as A, B, C and D, whereby A: IC50<0.01 μM; B: 0.01<IC50<0.1 μM; C: 0.1<IC50<1.0 μM; D: IC50>1.0 μM)
# AhR [2] = biological target: T2, AhR (Homo sapiens, UniProt P35869); assay: In vitro assay 1: XRE-luciferase reporter assay, antagonism in human cell line (HepG2); conditions: HepG2 XRE-luciferase, cells treated with kynurenine 200 μM (no *), 6 hours; read-out: Assay 1: AhR-Luc Human Antagonism (IC50)
# T2 construct: host or cells: HepG2
# T2 sequence (P35869 11-848): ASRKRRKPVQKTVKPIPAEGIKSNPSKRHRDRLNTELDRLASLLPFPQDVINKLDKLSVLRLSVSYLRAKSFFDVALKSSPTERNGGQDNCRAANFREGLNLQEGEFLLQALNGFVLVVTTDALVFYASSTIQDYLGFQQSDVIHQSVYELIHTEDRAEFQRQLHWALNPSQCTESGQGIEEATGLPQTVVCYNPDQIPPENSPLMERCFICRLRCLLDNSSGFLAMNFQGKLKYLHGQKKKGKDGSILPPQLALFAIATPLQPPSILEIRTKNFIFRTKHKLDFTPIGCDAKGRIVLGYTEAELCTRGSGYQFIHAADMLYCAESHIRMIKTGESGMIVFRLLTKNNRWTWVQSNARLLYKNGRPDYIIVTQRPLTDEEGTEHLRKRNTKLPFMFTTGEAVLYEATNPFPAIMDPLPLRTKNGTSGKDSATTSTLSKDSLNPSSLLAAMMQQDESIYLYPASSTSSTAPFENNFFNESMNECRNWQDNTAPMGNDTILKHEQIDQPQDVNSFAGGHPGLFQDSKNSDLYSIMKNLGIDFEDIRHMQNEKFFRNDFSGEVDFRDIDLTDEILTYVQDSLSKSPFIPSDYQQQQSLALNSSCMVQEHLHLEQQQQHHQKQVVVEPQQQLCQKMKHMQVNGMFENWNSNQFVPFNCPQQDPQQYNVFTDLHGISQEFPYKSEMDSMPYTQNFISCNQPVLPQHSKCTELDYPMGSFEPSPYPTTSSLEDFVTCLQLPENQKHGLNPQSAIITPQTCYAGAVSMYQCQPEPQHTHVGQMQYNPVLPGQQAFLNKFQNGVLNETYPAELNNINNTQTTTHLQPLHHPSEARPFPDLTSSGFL
# Method in brief: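 HepG2 cells carrying XRE-firefly luciferase (transient or stable) plus constitutive Nano-Luc control, stimulated 6 h with kynurenine (50 or 200 μM) with or without compound. Firefly/Nano-Luc ratio normalized to kynurenine-alone (maximum) and vehicle (minimum); IC50 by four-parameter nonlinear regression.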
# AhR [3] = biological target: T2, AhR; assay: In vitro assay 3: XRE-luciferase reporter assay, agonism in human cell line (HepG2); conditions: HepG2 XRE-Luc, tryptophan free medium, test compound alone, 6 hours
# Excerpt: as §1, §2
# In Vitro Assay 3: Agonism in Human Cell Line
# HepG2 (human hepatoma cell line) cells co-transfected with XRE-Luc and Nano-Luc plasmids were plated in tryptophan free medium containing 1% of dialyzed fetal bovine serum and incubated overnight at 37° C. in a CO2 incubator. After 24 hours, cells were treated for 6 hours with test compounds or not. Firefly luciferase and Nano-luciferase activity was measured using Nano-glo Luciferase kit (Promega) and relative luciferase activity (Firefly/Nano-Luc) was used to calculate EC50 values. As a positive control, cells were incubated with TCDD. (EC50 Values are grouped as A, B, C and D, whereby A: EC50<0.1 μM; B: 0.1<EC50<1.0 μM; C: 1.0<EC50<10 μM; D: EC50>10 μM)
# AhR [4] = biological target: T2, AhR; assay: In vitro assay 4: endogenous AhR activity assay (CYP1A1 and CYP1B1 mRNA, qRT-PCR, HepG2 cells); conditions: TCDD 10 nM with compound 123 nM, 4 hours, mRNA relative to β-actin, read-out: CYP1A1 (% Inhibition)
# Protocol: In Vitro Assay 4: Endogenous AhR Activity Assay
# HepG2 cells were seeded in 12-well plate (3×10^5 cells/well). A day after seeding, the cells were treated with TCDD (10 nM) alone or with compounds (123 nM) for 4 hours. Total RNA was extracted using Trizol (Thermo Fisher Scientific). cDNA synthesis and quantitative RT-PCR (qRT-PCR) assays were performed using PrimeScript™ RT Master Mix (TAKARA) and TB Green™ Premix Ex Taq™ II (TAKARA) in accordance with manufacturer's instruction. For the measurement of endogenous AhR activity, relative mRNA levels of CYP1A1 and CYP1B1 were quantitated relative to β(beta)-actin mRNA by the comparative Ct (ΔΔCt) method. The percent inhibitions were calculated according to: […]
# [5] = AhR activating ligand such as kynurenic acid (no #)
# [6] = read-out: Assay 3: AhR-Luc Human Agonism (EC50)
# [7] = read-out: Assay 3: AhR-Luc Human Agonism (EC50, nM), class in brackets
# [8] = cells treated with kynurenine (#)
Compound,IC50 (AhR [1]; [5]) [µM],IC50 (AhR [2]) [µM],EC50 (AhR [3]; [6]) [nM],EC50 (AhR [3]; [7]) [nM],inhibition at 0.123 µM (AhR [4]) [%],IC50 (AhR [1]; [8]) [µM]
"O=c1c2cc(-c3ccc(Cl)cc3)nc(-c3cccnc3)c2ncn1[C@H]1CC[C@H](O)CC1 [Example 56, 6-(4-chlorophenyl)-3-((1r,4r)-4-hydroxycyclohexyl)-8-(pyridin-3-yl)pyrido[3,4-d]pyrimidin-4(3H)-one]",< 0.01,< 0.01,> 30000,> 10000,101,–
"O=c1c2cc(-c3ccc(C(F)(F)F)cc3)nc(-c3cccnc3)c2ncn1CC(O)CO (centres unmarked) [Example 66, 3-(2,3-dihydroxypropyl)-8-(pyridin-3-yl)-6-(4-(trifluoromethyl)phenyl)pyrido[3,4-d]pyrimidin-4(3H)-one]",–,< 0.01,–,–,100,0.01 to 0.1
"CC(CO)n1cnc2c(-c3cccnc3)nc(-c3ccc(N4CCOCC4)cc3)cc2c1=O (centres unmarked) [Example 75, 3-(1-hydroxypropan-2-yl)-6-(4-morpholinophenyl)-8-(pyridin-3-yl)pyrido[3,4-d]pyrimidin-4(3H)-one]",–,< 0.01,> 30000,> 10000,101,0.01 to 0.1
"CC(=O)NCC(C)n1cnc2c(-c3cccnc3)nc(-c3ccc(Cl)cc3)cc2c1=O (centres unmarked) [Example 88, N-(2-(6-(4-chlorophenyl)-4-oxo-8-(pyridin-3-yl)pyrido[3,4-d]pyrimidin-3(4H)-yl)propyl)acetamide]",–,< 0.01,> 30000,> 10000,99.2,0.01 to 0.1
"CC(=O)N1CCC(n2cnc3c(-c4cccnc4)nc(-c4ccc(Cl)cc4)cc3c2=O)CC1 [Example 96, 3-(1-acetylpiperidin-4-yl)-6-(4-chlorophenyl)-8-(pyridin-3-yl)pyrido[3,4-d]pyrimidin-4(3H)-one]",< 0.01,< 0.01,> 30000,> 10000,99.9,–
